One data set relates to Plasmodium knowlesi. Kind of data set: Antimalarial activity against Plasmodium knowlesi A1H1. The class given is functional, organism-based.
The test system of data set [1] is Plasmodium falciparum. In words: Antimalarial activity against Plasmodium falciparum 3D7 assessed as inhibition of parasitemia incubated for 72 hrs by fluorescence based assay. In kind it is functional, organism-based. As to conditions: 3D7, 72 h.
Data set [2] is described as follows: Inhibition of Plasmodium falciparum SR21.
Data set [3] deals with Plasmodium falciparum. In words: Antiplasmodial activity against Plasmodium falciparum 3D7 at asexual erythrocytic stage infected in human erythrocytes assessed as parasite growth inhibition incubated for 42 hrs by [3H]-hypoxanthine incorporation assay. The class given is functional, organism-based. As to conditions: 3D7, Erythrocyte.
A short description of data set [4]: Cytotoxicity against human Huh-7 cells by MTT assay. The class given is toxicity, cell-based. In general terms: Tetrazolium dyes change colour on reduction, which living cells bring about.
Data set [5] concerns Plasmodium falciparum. Kind of data set: Antimalarial activity against Plasmodium falciparum D6. The class given is functional, organism-based.
In data set [6] the test system is Plasmodium falciparum. In words: Antimalarial activity against Plasmodium falciparum W2. The class given is functional, organism-based.
The subject of data set [7] is Plasmodium falciparum. Kind of data set: Antimalarial activity against Plasmodium falciparum 3D7 infected in A+ human erythrocytes assessed as reduction in parasite growth incubated for 72 hrs by SYBR Green I staining based analysis. In kind it is functional, organism-based. As to conditions: 3D7, Erythrocyte.
Data set [8] is described as follows: Cytotoxicity against African green monkey Vero cells after 72 hrs by MTT assay. The class given is toxicity, cell-based. The conditions noted are these: chlorocebus sabaeus.
For data set [9], the system named is Plasmodium falciparum. In words: Antimalarial activity against Plasmodium falciparum Dd2 infected in A+ human erythrocytes assessed as reduction in parasite growth incubated for 72 hrs by SYBR Green I staining based analysis. In kind it is functional, organism-based. The conditions noted are these: Dd2, Erythrocyte.
Data set [10] is described as follows: Cytotoxicity against human erythrocytes. The class given is toxicity, cell-based, Erythrocyte.
Data set [11] concerns Plasmodium falciparum. Kind of data set: Antiplasmodial activity against CQ-resistant Plasmodium falciparum W2 assessed as parasite growth inhibition incubated for 72 hrs by SYBR Green I staining based analysis. In kind it is functional, organism-based. The conditions noted are these: W2, 72 h.
The subject of data set [12] is Plasmodium falciparum. Kind of data set: Antiplasmodial activity against CQ-susceptible Plasmodium falciparum 3D7 assessed as parasite growth inhibition incubated for 72 hrs by SYBR Green I staining based analysis. As to conditions: 3D7, 72 h. The class given is functional, organism-based.
Data set [13] deals with Plasmodium falciparum. In words: Antimalarial activity against CQ-sensitive Plasmodium falciparum 3D7 at trophozoite stage infected in O+ human erythrocytes assessed as parasite growth inhibition in presence of 297 uM thiamine by SYBR staining based analysis. In kind it is functional, organism-based. As to conditions: 3D7, Erythrocyte.
Data set [14] concerns Plasmodium falciparum. In words: Antimalarial activity against Plasmodium falciparum K1 assessed as parasite growth inhibition. The class given is functional, organism-based.
Data set [15] concerns Plasmodium falciparum. Kind of data set: Antimalarial activity against Plasmodium falciparum 3D7 assessed as parasite growth inhibition. The class given is functional, organism-based.
The test system of data set [16] is Plasmodium falciparum. In words: Antimalarial activity against CQ-sensitive Plasmodium falciparum 3D7 at trophozoite stage infected in O+ human erythrocytes assessed as parasite growth inhibition in presence of 2.97 uM thiamine by SYBR staining based analysis. In kind it is functional, organism-based. The conditions noted are these: 3D7, Erythrocyte.
The test system of data set [17] is Plasmodium falciparum. Kind of data set: Antimalarial activity against Plasmodium falciparum NF54 infected in human erythrocytes assessed as inhibition of parasitemia by giemsa staining based analysis. In kind it is functional, organism-based. The conditions noted are these: NF54, Erythrocyte.
Data set [18] concerns Plasmodium falciparum. In words: Antimalarial activity against CQ-sensitive Plasmodium falciparum 3D7 infected in O+ human RBCs assessed as parasite growth inhibition by SYBR Green I staining based assay. The class given is functional, organism-based. The conditions noted are these: 3D7, Erythrocyte.
The test system of data set [19] is Plasmodium falciparum. In words: Antimalarial activity against CQ-resistant Plasmodium falciparum RKL9 infected in O+ human RBCs assessed as parasite growth inhibition by SYBR Green I staining based assay. The class given is functional, organism-based. As to conditions: RKL9, Erythrocyte.
Data set [20] in a line: Cytotoxicity against African green monkey Vero cells assessed as cell growth inhibition incubated for 24 hrs by fluorescence based assay. In kind it is toxicity. The conditions noted are these: African green monkey (Chlorocebus sabaeus).
In data set [21] the test system is Plasmodium falciparum. Kind of data set: Antiplasmodial activity against CQ-resistant Plasmodium falciparum K1 at asexual erythrocyte stage by LDH assay. The class given is functional, organism-based.
The test system of data set [22] is Plasmodium falciparum. Kind of data set: Antiplasmodial activity against CQ-sensitive Plasmodium falciparum NF54 at asexual erythrocyte stage by LDH assay. In kind it is functional, organism-based.
In data set [23] the test system is Plasmodium falciparum. In words: Antimalarial activity against Plasmodium falciparum 3D7 by SYBR green dye based analysis. The class given is functional, organism-based.

This is an account of results in ChEMBL document CHEMBL5512597, “Triazole hybrid compounds: A new frontier in malaria treatment” (Eur J Med Chem, 2023).

Broadly, the EC50 is the concentration needed to bring the measured effect to its halfway point. For orientation: IC50 means the point on the concentration scale where inhibition reaches its midpoint. In general, CC50 refers to the concentration giving 50% cytotoxicity.

In brackets after ≈: the same amount, converted by molar mass. A value given as a limit tells only on which side of the number the result lay.

The molecule `O=C1CC(c2n[nH]c(=S)n2-c2ccccc2)CN1Cc1ccccc1` (configuration not stated) returned an EC50 with Plasmodium knowlesi of 28.9 µM.
With `O/N=C/c1cn(-c2ccc(Cl)cc2)nn1`, the IC50 was determined as 6.67 µM in the data set on Plasmodium falciparum [1] and 0.89 µM in data set [2].
With `Cc1cc(C)nc(NS(=O)(=O)c2ccc(-n3cc(COc4ccc([N+](=O)[O-])cc4)nn3)cc2)n1`, in the data set with Plasmodium falciparum [3], the IC50 is 6.2 µg/mL (≈ 12.9 µM). Besides, in [4], it took 7.5 µg/mL (≈ 15.6 µM) to reach half-maximal cytotoxicity (CC50).
In the case of `CCCCCCCCCn1cc(C(=O)OC)nn1`, the IC50 with Plasmodium falciparum [5] came to 11.2 µM; in the data set on Plasmodium falciparum [6] it was 6.67 µM.
In the case of `CCCCCCCn1cc(CO)nn1`, the half-maximal inhibitory concentration (IC50) in the data set with Plasmodium falciparum [5] was determined as 13.3 µM; in the data set with Plasmodium falciparum [6] it was 6.63 µM.
For the molecule `CCN(CC)CCCC(C)Nc1ccnc2cc(Cl)ccc12` (configuration not stated) [CHLOROQUINE], the EC50 came out at 0.0127 µM with Plasmodium falciparum [7], 0.21 µM in the data set with Plasmodium knowlesi and 0.166 µM in the data set with Plasmodium falciparum [9]. The molecule further yielded a cytotoxic concentration (CC50) at 72 h in data set [8] of 112 µM. The molecule further registered a cytotoxic concentration (CC50) in data set [10] of over 100 µg/mL.
On to `OB1OCc2cc(OCc3cn(-c4ccnc5ccc(Cl)cc45)nn3)ccc21`, for which the IC50 with Plasmodium falciparum [11] was 5.22 µM; in the data set with Plasmodium falciparum [12] it was 4.87 µM.
Regarding `Cc1ncc(Cn2cc(CCOC(=O)c3ccccc3)nn2)c(N)n1`, the concentration for half-maximal inhibition (IC50) with Plasmodium falciparum [13] is over 200 µM.
In the case of `COc1cc(/C=C/C(=O)c2cc3ccccc3oc2=O)ccc1OCc1cn(-c2ccnc3cc(Cl)ccc23)nn1`, the IC50 in the data set with Plasmodium falciparum [14] and in the data set on Plasmodium falciparum [15] was over 5 µM each time.
Turning to `CCCCCCCCCC(=O)OCc1cn(-c2ccc(Cl)cc2)nn1`, the concentration for half-maximal inhibition (IC50) in the data set on Plasmodium falciparum [1] is 2.8 µM; in data set [2], 1.55 µM.
For the molecule `C[C@@H]1CC[C@H]2[C@@H](C)C(=O)O[C@@H]3O[C@@]4(C)CC[C@@H]1[C@]32OO4` [ARTEMISININ], the midpoint of inhibition in the data set on Plasmodium falciparum [6], the IC50, lay at 0.094 µM.
On to `Cc1ncc(Cn2cc(CCOC(=O)c3cccc(Cl)c3)nn2)c(N)n1`, for which the IC50 in the data set on Plasmodium falciparum [13] is 79 µM; in the data set with Plasmodium falciparum [16] it was 62 µM.
As for `Clc1ccc2c(Nc3nc[nH]n3)cccc2c1`, the concentration for half-maximal inhibition (IC50) with Plasmodium falciparum [17] was 42.6 µM.
For `COc1cc(/C=C/C(=O)c2ccc(Cl)cc2)ccc1OCc1cn(-c2ccnc3cc(Cl)ccc23)nn1`, the IC50 was found to be 3.55 µM with Plasmodium falciparum [14] and 4.12 µM in the data set with Plasmodium falciparum [15].
Take `COc1ccccc1C(=O)/C=C/c1cn(Cc2cn(-c3ccnc4cc(Cl)ccc34)nn2)c2ccccc12`: the values for the IC50 in the data set on Plasmodium falciparum [18] and with Plasmodium falciparum [19] were 2.44 µM and 3.55 µM, respectively.
Take `OB1OCc2cc(OCc3cn(CCNc4ccnc5cc(Cl)ccc45)nn3)ccc21`: the IC50 with Plasmodium falciparum [11] amounted to 3.78 µM; in the data set with Plasmodium falciparum [12], 4.15 µM. For the same molecule, in data set [20], the IC50 at 24 h is over 100 µM.
For the molecule `Cc1ccccc1C(=O)/C=C/c1cn(Cc2cn(-c3ccnc4cc(Cl)ccc34)nn2)c2ccccc12`, the half-maximal inhibitory concentration (IC50) is 1.81 µM with Plasmodium falciparum [18] and 2.72 µM with Plasmodium falciparum [19].
As for `Clc1ccc2c(NCCn3cc(-c4ccnc(-c5ccccn5)c4)nn3)ccnc2c1`, the IC50 turned out to be 0.275 µM in the data set on Plasmodium falciparum [21] and 0.098 µM in the data set with Plasmodium falciparum [22].
With `CCOC(=O)c1n[nH]c(-c2ccccn2)n1`, half-maximal inhibition in the data set on Plasmodium falciparum [23] (IC50) was put at 176 µM.
For `Clc1cc(Cl)cc(-n2cc(/C=N/Nc3ccc(Br)cc3)nn2)c1`, the IC50 in the data set on Plasmodium falciparum [1] is 29.3 µM; in data set [2] it was 12.4 µM.
In the case of `OB1OCc2cc(OCc3cn(CCN4CCN(c5ccnc6cc(Cl)ccc56)CC4)nn3)ccc21`, the IC50 with Plasmodium falciparum [11] was 4.86 µM; in the data set on Plasmodium falciparum [12] it was 5.31 µM. The IC50 at 24 h in data set [20] was 82.4 µM.
